# Laboratory results reported in US20110184006A1, “METHOD AND COMPOSITION FOR THERMALLY STABILIZING VITAMIN C WITHIN NANO LAYERS OF MONTMORILLONITE CLAY” (NATIONAL RESEARCH COUNCIL OF SRI LANKA, priority 2010, published 2011).
# What was measured:
# [1] = Thermal stability: FTIR spectra after heating for 30 minutes; format: physicochemical
# Method: Infrared (IR) spectroscopy was used to quantify samples. Nicolet 6700 FT-IR spectrophotometer was used to measure absorbance or transmittance value of samples. All samples were finely ground and mixed with fused KBr to form pellets in the measurements. Typical parameters included: scan range of 400-4000 cm^−1; resolution 4.00 cm^−1; and the number of scans were 32.
# The FTIR spectra of the 0.5000 g calcium montmorillonite chelated with 0.2500 g of LAA heated at 100° C., 120° C., 140° C., 160° C., 180° C. and 200° C. for 30 minutes are shown in FIG. 10. As reference, the FTIR spectra of LAA at room temperature and after heating to 90, 120, 140, 160, 180 and 200° C. for 30 minutes are also shown in FIG. 10.
# Further at 140° C., the structure of LAA is altered as the carbonyl stretch at 1750 cm^−1 was broader and the fingerprint region was changed.
# First, 0.1000 g samples of the chelated clays were prepared as described in previous examples. Then to determine the thermal stability, 0.1000 g samples of 0.5000 g calcium montmorillonite chelated with 0.0500 g, 0.1000 g, 0.2500 g and 0.5000 g of LAA, were heated in an oven at 90° C. for 30 minutes. Pellets of the cooled samples were prepared with fused KBr and FTIR spectra of these samples were obtained. Reference spectra of the calcium montmorillonite chelated clays before heating were also obtained for comparison. […]
# [2] = in blood plasma; cited from earlier work
smiles,measurement,setting,value
"O=C1O[C@H]([C@@H](O)CO)C(O)=C1O [LAA, L-ascorbic acid]",structure (FTIR) after heating at 140° C.,"[1]; 140° C., 30 minutes",altered
same,change of structure (FTIR) as the temperature is increased,[1]; heated 30 minutes at 90/100 to 200° C.,changes gradually as the temperature is increased until it is completely destroyed
same,biological half-life,[2],about 30 minutes
